Experimental data taken from patent US20090270371A1, “QUINOLINE DERIVATIVES USEFUL IN THE TREATMENT OF MGLUR5 RECEPTOR-MEDIATED DISORDERS” (priority 2005, published 2009).

Biological target: T1, rat mGluR5 receptors (Rattus norvegicus, UniProt P31424)
T1 construct: rat cerebro-cortical membrane preparation was used; from tissue; host or cells: rat cerebral cortex membranes
Experiment: mGluR5 receptor binding test, rat cerebro-cortical membrane preparation, [3H]-M-MPEP
Settings: affinity for rat mGluR5 receptors; [3H]-M-MPEP (2 nM) radioligand
Experimental: The mGluR5 receptor binding was determined according to the modified method of Gasparini et. al. (Bioorg. Med. Chem. Lett., 2000, 12, 407). Based on the high homology between the human and rat mGluR5 receptors, rat cerebro-cortical membrane preparation was used to determine the binding characteristics of the reference compounds and novel compounds to the rat mGluR5. The A18 cell line expressing hmGluR5a (purchased from Euroscreen) was used to determine binding characteristics of the chemical compounds to the human mGluR5a receptor. [^3H]-M-MPEP (2 nM) was used as radioligand. The nonspecific binding was determined in the presence of 10 μM M-MPEP.

T1 sequence (P31424 21-1203): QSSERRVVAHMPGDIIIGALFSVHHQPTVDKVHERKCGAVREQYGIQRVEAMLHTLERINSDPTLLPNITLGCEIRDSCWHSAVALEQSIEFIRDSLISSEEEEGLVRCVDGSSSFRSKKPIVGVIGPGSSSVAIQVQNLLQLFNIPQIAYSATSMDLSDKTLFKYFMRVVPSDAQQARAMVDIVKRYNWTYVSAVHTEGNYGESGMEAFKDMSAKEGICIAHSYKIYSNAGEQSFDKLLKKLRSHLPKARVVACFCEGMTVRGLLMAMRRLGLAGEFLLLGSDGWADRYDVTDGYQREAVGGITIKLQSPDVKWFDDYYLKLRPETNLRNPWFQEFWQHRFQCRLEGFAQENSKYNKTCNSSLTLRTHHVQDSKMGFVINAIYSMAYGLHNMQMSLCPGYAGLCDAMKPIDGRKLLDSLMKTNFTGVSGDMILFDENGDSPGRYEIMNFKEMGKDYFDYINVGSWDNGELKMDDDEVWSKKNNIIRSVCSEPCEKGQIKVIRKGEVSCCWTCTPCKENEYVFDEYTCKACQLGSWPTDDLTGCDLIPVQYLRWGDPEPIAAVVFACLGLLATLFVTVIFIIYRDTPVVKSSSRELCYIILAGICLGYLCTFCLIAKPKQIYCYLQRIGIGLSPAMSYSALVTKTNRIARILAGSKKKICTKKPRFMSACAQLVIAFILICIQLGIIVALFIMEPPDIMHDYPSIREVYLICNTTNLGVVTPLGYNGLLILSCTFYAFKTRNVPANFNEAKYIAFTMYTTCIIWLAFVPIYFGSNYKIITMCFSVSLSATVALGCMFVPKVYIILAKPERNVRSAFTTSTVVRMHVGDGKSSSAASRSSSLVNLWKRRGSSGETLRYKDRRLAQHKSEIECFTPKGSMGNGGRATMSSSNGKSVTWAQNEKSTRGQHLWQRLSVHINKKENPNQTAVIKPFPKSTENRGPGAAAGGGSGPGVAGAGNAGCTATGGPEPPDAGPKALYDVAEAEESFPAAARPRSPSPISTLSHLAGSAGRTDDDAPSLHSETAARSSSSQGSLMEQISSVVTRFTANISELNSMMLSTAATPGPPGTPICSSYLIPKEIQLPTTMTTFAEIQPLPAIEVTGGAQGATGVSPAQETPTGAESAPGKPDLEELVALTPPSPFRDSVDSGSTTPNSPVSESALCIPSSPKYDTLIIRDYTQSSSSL

| Structure (SMILES) | Ki [nM] |
| --- | --- |
| Cc1ccc(S(=O)(=O)c2cnc3ccccc3c2N2CCOCC2)cc1C [Compound 1, 3-(3,4-Dimethyl-benzenesulfonyl)-4-(morpholin-4-yl)-quinoline] | < 200 |
| Cc1ccc(S(=O)(=O)c2cnc3ccccc3c2N2CCC(C)CC2)cc1 [Compound 2, 3-(4-Methyl-benzenesulfonyl)-4-(4-methyl-piperidin-1-yl)-quinoline] | < 200 |
| Cc1ccc(S(=O)(=O)c2cnc3ccccc3c2N2CCC(C)CC2)cc1C [Compound 3, 3-(3,4-Dimethyl-benzenesulfonyl)-4-(4-methyl-piperidin-1-yl)-quinoline] | < 200 |
| Cc1ccc(S(=O)(=O)c2cnc3ccccc3c2N2CCCC(C)C2)cc1 (stereo not drawn) [Compound 4, 3-(4-Methyl-benzenesulfonyl)-4-(3-methyl-piperidin-1-yl)-quinoline] | < 200 |
| O=S(=O)(c1ccccc1)c1cnc2ccccc2c1N1CCCCC1 [Compound 5] | 200 to 500 |
| Cc1ccc(S(=O)(=O)c2cnc3ccccc3c2N2CCCCC2)cc1 [Compound 6] | < 200 |
| COc1cc2ncc(S(=O)(=O)c3ccccc3)c(N3CCOCC3)c2cc1OC [Compound 7] | > 500 |
| O=S(=O)(c1ccc(N2CCCCC2)cc1)c1cnc2ccc(Cl)cc2c1N1CCCCC1 [Compound 8] | > 500 |
| CCN(CC)c1c(S(=O)(=O)c2ccc(Cl)cc2)cnc2ccc(C)cc12 [Compound 9] | < 200 |
| CCN1CCN(c2c(S(=O)(=O)c3ccc(F)cc3)cnc3ccc(Cl)cc23)CC1 [Compound 10] | > 500 |
| COc1ccc(S(=O)(=O)c2cnc3ccc(Cl)cc3c2NCc2ccccc2)cc1 [Compound 11] | > 500 |
| CCc1ccc2ncc(S(=O)(=O)c3ccc(OC)cc3)c(N(CC)CC)c2c1 [Compound 12] | > 500 |
| O=S(=O)(c1ccccc1)c1cnc2ccc(F)cc2c1N1CCN(Cc2ccccc2)CC1 [Compound 13] | > 500 |
| Cc1ccc(S(=O)(=O)c2cnc3ccc(F)cc3c2N2CCC(C)CC2)cc1 [Compound 14] | 200 to 500 |
| COc1ccc2ncc(S(=O)(=O)c3ccc(Cl)cc3)c(N3CCC(C)CC3)c2c1 [Compound 15] | > 500 |
| CCOc1ccc2ncc(S(=O)(=O)c3ccc(Cl)cc3)c(NCc3ccc(F)cc3)c2c1 [Compound 16] | < 200 |
| CCN(CC)c1c(S(=O)(=O)c2ccc(Cl)cc2)cnc2cc3c(cc12)OCCO3 [Compound 18] | > 500 |
| CCN1CCN(c2c(S(=O)(=O)c3ccc(C)c(C)c3)cnc3cc4c(cc23)OCO4)CC1 [Compound 19] | > 500 |
| O=S(=O)(c1ccccc1)c1cnc2ccccc2c1Nc1ccccc1 [Compound 20] | > 500 |
| Cc1ccc(Nc2c(S(=O)(=O)c3ccc(C)cc3)cnc3ccccc23)cc1 [Compound 21] | > 500 |
| Cc1ccc(Nc2c(S(=O)(=O)c3ccc(Cl)cc3)cnc3ccccc23)cc1C [Compound 22] | > 500 |
| COc1cccc(Nc2c(S(=O)(=O)c3ccccc3)cnc3ccc(OC)cc23)c1 [Compound 23] | > 500 |
| COc1ccc(Nc2c(S(=O)(=O)c3ccc(C)cc3)cnc3ccccc23)cc1OC [Compound 24] | > 500 |
| Cc1ccc(S(=O)(=O)c2cnc3ccccc3c2Nc2ccc(F)cc2)cc1 [Compound 25] | > 500 |
| Cc1ccc(S(=O)(=O)c2cnc3ccc(C)cc3c2Nc2ccc(Cl)cc2)cc1 [Compound 26] | > 500 |
| Cc1ccc(S(=O)(=O)c2cnc3ccccc3c2Nc2ccc3c(c2)OCCO3)cc1 [Compound 27] | > 500 |

| Structure (SMILES) | Ki [nM] |
| --- | --- |
| Cc1ccc(S(=O)(=O)c2cnc3ccc(C)cc3c2NCc2ccccc2)cc1 [Compound 28] | > 500 |
| Cc1ccc(S(=O)(=O)c2cnc3ccc(C)cc3c2NCc2ccc(F)cc2)cc1 [Compound 29] | > 500 |
| CCc1ccc2ncc(S(=O)(=O)c3ccc(Cl)cc3)c(NCc3ccc(C)cc3)c2c1 [Compound 30] | > 500 |
| COc1ccc(CNc2c(S(=O)(=O)c3ccc(Cl)cc3)cnc3ccccc23)cc1 [Compound 31] | > 500 |
| Cc1ccc(S(=O)(=O)c2cnc3ccccc3c2N2CCCCCC2)cc1 [Compound 32] | < 200 |
| Cc1ccc(S(=O)(=O)c2cnc3ccc(F)cc3c2N2CCCCCC2)cc1 [Compound 33] | > 500 |
| O=S(=O)(c1ccc(Cl)cc1)c1cnc2ccccc2c1N1CCCCCC1 [Compound 34] | 200 to 500 |
| CCc1ccc2ncc(S(=O)(=O)c3ccccc3)c(N3CCCC3)c2c1 [Compound 35] | > 500 |
| CCOc1ccc2ncc(S(=O)(=O)c3ccccc3)c(N3CCCC3)c2c1 [Compound 36] | > 500 |
| O=S(=O)(c1ccccc1)c1cnc2ccc(Cl)cc2c1N1CCCC1 [Compound 37] | > 500 |
| Cc1ccc(S(=O)(=O)c2cnc3ccc(Cl)cc3c2N2CCOCC2)cc1C [Compound 38] | > 500 |
| Cc1ccc2ncc(S(=O)(=O)c3ccc(Cl)cc3)c(N3CCOCC3)c2c1 [Compound 39] | > 500 |
| O=S(=O)(c1ccc(Cl)cc1)c1cnc2ccccc2c1N1CCOCC1 [Compound 40] | > 500 |
| Cc1ccc(S(=O)(=O)c2cnc3ccc(C)cc3c2N2CCCCC2)cc1 [Compound 41] | > 500 |
| Cc1ccc(S(=O)(=O)c2cnc3cc4c(cc3c2N2CCCCC2)OCCO4)cc1 [Compound 42] | > 500 |
| O=S(=O)(c1ccc(Cl)cc1)c1cnc2ccccc2c1N1CCCCC1 [Compound 43] | > 500 |
| COc1ccc(S(=O)(=O)c2cnc3ccc(OC)cc3c2N2CCCCC2)cc1 [Compound 44] | > 500 |
| CCc1ccc2ncc(S(=O)(=O)c3ccccc3)c(N3CCCCC3)c2c1 [Compound 45] | > 500 |
| Cc1ccc(S(=O)(=O)c2cnc3ccc(C)cc3c2N2CCC(C)CC2)cc1 [Compound 46] | < 200 |
| CC1CCN(c2c(S(=O)(=O)c3ccccc3)cnc3ccccc23)CC1 [Compound 47] | < 200 |
| CC1CCN(c2c(S(=O)(=O)c3ccccc3)cnc3cc4c(cc23)OCCO4)CC1 [Compound 48] | < 200 |
| Cc1ccc2ncc(S(=O)(=O)c3ccccc3)c(N3CCC(C)CC3)c2c1 [Compound 49] | > 500 |
| COc1ccc2ncc(S(=O)(=O)c3ccc(C)cc3)c(N3CCC(C)CC3)c2c1 [Compound 50] | > 500 |
| CCc1ccc2ncc(S(=O)(=O)c3ccc(OC)cc3)c(N3CCC(C)CC3)c2c1 [Compound 51] | < 200 |
| CCOC(=O)C1CCN(c2c(S(=O)(=O)c3ccc(C)cc3)cnc3ccc(CC)cc23)CC1 [Compound 52] | > 500 |
| CCOC(=O)C1CCN(c2c(S(=O)(=O)c3ccc(Cl)cc3)cnc3ccc(CC)cc23)CC1 [Compound 53] | < 200 |

| Structure (SMILES) | Ki [nM] |
| --- | --- |
| CCOC(=O)C1CCN(c2c(S(=O)(=O)c3ccc(C)cc3)cnc3ccccc23)CC1 [Compound 54] | > 500 |
| CCOC(=O)C1CCN(c2c(S(=O)(=O)c3ccc(C)cc3)cnc3ccc(F)cc23)CC1 [Compound 55] | > 500 |
| CCOC(=O)C1CCCN(c2c(S(=O)(=O)c3ccc(C)cc3)cnc3ccccc23)C1 (stereo not drawn) [Compound 56] | > 500 |
| CCOC(=O)C1CCCN(c2c(S(=O)(=O)c3ccccc3)cnc3ccc(CC)cc23)C1 (stereo not drawn) [Compound 57] | > 500 |
| CCOC(=O)C1CCCN(c2c(S(=O)(=O)c3ccc(C)cc3)cnc3ccc(OC)cc23)C1 (stereo not drawn) [Compound 58] | > 500 |
| Cc1ccc(S(=O)(=O)c2cnc3ccc(C)cc3c2N2CCC(C(N)=O)CC2)cc1 [Compound 59] | > 500 |
| O=S(=O)(c1ccccc1)c1cnc2ccccc2c1N1CCC2(CC1)OCCO2 [Compound 60] | > 500 |
| CN1CCN(c2c(S(=O)(=O)c3ccc(Cl)cc3)cnc3ccccc23)CC1 [Compound 61] | > 500 |
| CCN1CCN(c2c(S(=O)(=O)c3ccc(Cl)cc3)cnc3ccc(C)cc23)CC1 [Compound 62] | > 500 |
| CCc1ccc2ncc(S(=O)(=O)c3ccccc3)c(N3CCN(CC)CC3)c2c1 [Compound 63] | > 500 |
| O=S(=O)(c1ccccc1)c1cnc2ccccc2c1N1CCN(Cc2ccccc2)CC1 [Compound 64] | > 500 |
| Cc1ccc(S(=O)(=O)c2cnc3ccc(C)cc3c2N2CCN(Cc3ccccc3)CC2)cc1 [Compound 65] | > 500 |
| CCc1ccc2ncc(S(=O)(=O)c3ccccc3)c(N3CCN(Cc4ccccc4)CC3)c2c1 [Compound 66] | > 500 |
| Cc1ccc(S(=O)(=O)c2cnc3ccc(F)cc3c2N2CCN(c3ccccc3)CC2)cc1 [Compound 67] | > 500 |
| Cc1ccc(N2CCN(c3c(S(=O)(=O)c4ccccc4)cnc4ccc(F)cc34)CC2)c(C)c1 [Compound 68] | > 500 |
| COc1ccc2ncc(S(=O)(=O)c3ccccc3)c(N3CCN(c4cccc(C)c4C)CC3)c2c1 [Compound 69] | > 500 |
| Cc1ccc(S(=O)(=O)c2cnc3ccccc3c2N2CCN(c3cc(C)ccc3C)CC2)cc1 [Compound 70] | > 500 |
| O=S(=O)(c1ccccc1)c1cnc2ccccc2c1N1CCN(c2cccc(Cl)c2)CC1 [Compound 71] | > 500 |
| O=S(=O)(c1ccc(Cl)cc1)c1cnc2ccccc2c1N1CCN(c2ccc(F)cc2)CC1 [Compound 72] | > 500 |
| Cc1ccc(S(=O)(=O)c2cnc3ccc(C)cc3c2N2CCN(c3ccccc3F)CC2)cc1 [Compound 73] | > 500 |
| COc1ccccc1N1CCN(c2c(S(=O)(=O)c3ccc(C)cc3)cnc3ccccc23)CC1 [Compound 74] | > 500 |
| COc1ccc(N2CCN(c3c(S(=O)(=O)c4ccc(Cl)cc4)cnc4ccc(C)cc34)CC2)cc1 [Compound 75] | > 500 |
| CCN(CC)c1c(S(=O)(=O)c2ccc(C)cc2)cnc2ccccc12 [Compound 76] | 200 to 500 |
| Cc1ccc(S(=O)(=O)c2cnc3ccccc3c2NCc2ccccc2)cc1 [Compound 77] | < 200 |
| COc1ccc2ncc(S(=O)(=O)c3ccc(Cl)cc3)c(NCc3ccccc3)c2c1 [Compound 78] | > 500 |
| O=S(=O)(c1ccc(Cl)cc1)c1cnc2ccccc2c1N1CCN(Cc2ccccc2)CC1 [Compound 79] | 200 to 500 |
